Laboratory results as given in patent publication US20250127807A1, “TREATMENT OF VAGINAL DYSBIOTIC CONDITIONS WITH ASSOCIATED ELEVATED VAGINAL CALPROTECTIN” (priority 2022, published 2025).

How the values were obtained:
[1] = Modeling of Mn and Zn levels in vaginal fluid delivered from slow release Z2 formulation; parameters: species or system women
Method: Six women each received 3 doses of formulation Z2 separated by 48 hours. Vaginal fluid swabs were collected at t=0, 2, 4, 8, 12, 18, 24, 30, 36, and 42 hours post dose and vaginal fluid concentrations of lactoferrin and mannitol were determined. Average concentrations for the combined 18 dose administrations were obtained based on calculation of Area Under Curve for the locally estimated scatterplot smoothing (Loess) profile of lactoferrin and mannitol concentrations assuming 6 mL volume of distribution.

[2] = parameters: species or system women; conditions: female, human, in vivo
Method: Elevated levels of calprotectin in BV and in L iners-dominated vaginal microbiomes sequester manganese and zinc, preventing growth of L crispatus its maintenance of a healthy vaginal microbiome. […] Six women each received 3 doses of formulation Z2 separated by 48 hours. Vaginal fluid swabs were collected at t=0, 2, 4, 8, 12, 18, 24, 30, 36, and 42 hours post dose and vaginal fluid concentrations of lactoferrin and mannitol were determined. Average concentrations for the combined 18 dose administrations were obtained based on calculation of Area Under Curve for the locally estimated scatterplot smoothing (Loess) profile of lactoferrin and mannitol concentrations assuming 6 mL volume of distribution. The average concentration of lactoferrin was 33 mg/mL and the average concentrations of mannitol was 20 mg/mL. Average concentrations of both substances correspond to 0.1 fraction or 10% of the administered dose, 300 mg lactoferrin and 195 mg mannitol per Z2 tablet respectively. The 0.1 factor was used to estimate the expected average elemental Mn concentration based on the initial dose per tablet.

[Mn+2] [Mn, manganese]
predicted Cmax, fold below the concentration of Mn used in MRS media ([1]; 50 μg dose of Mn): ~2 fold
predicted Cmax, fold above the amount of Mn that could be bound by calprotectin in BV ([1]; 50 μg dose of Mn, 95% CI of median 70 M based on 1:1 Mn/CP): ~2 fold

[Zn] [Zn, zinc]
predicted Cmax, fold below the concentration of Zn used in MRS media ([1]; 250 μg dose of Zn): ~5 fold
predicted Cmax, fold above the amount of Zn that could be bound by calprotectin in BV ([1]; 250 μg dose of Zn, 95% CI of median based on 2:1 Zn/CP): ~4 fold

OC[C@@H](O)[C@@H](O)[C@H](O)[C@H](O)CO [mannitol, reference compound]
average concentration as fraction of the administered dose [2]: 10%
